In article PMC9589189, “The human odorant receptor OR10A6 is tuned to the pheromone of the commensal fruit fly Drosophila melanogaster” (iScience, 2022):
Substitutions are numbered along the chain they refer to. Where two headings read alike, the source gives them in different places.

How the values were obtained:
Experiment in all cases: GloSensor cAMP luminescence, HEK-293
Format in all cases: cell-based
OR2W1 [1] = target: T1, OR2W1 (Homo sapiens, UniProt Q9Y3N9, D296N)
T1 construct: full coding region from human genomic DNA in pFN210A, N-terminal IL-6-HaloTag; HEK-293 with RTP1S, G-alpha-olf, G-gamma-13, GloSensor-22F
T1 sequence (Q9Y3N9 1-320 D296N): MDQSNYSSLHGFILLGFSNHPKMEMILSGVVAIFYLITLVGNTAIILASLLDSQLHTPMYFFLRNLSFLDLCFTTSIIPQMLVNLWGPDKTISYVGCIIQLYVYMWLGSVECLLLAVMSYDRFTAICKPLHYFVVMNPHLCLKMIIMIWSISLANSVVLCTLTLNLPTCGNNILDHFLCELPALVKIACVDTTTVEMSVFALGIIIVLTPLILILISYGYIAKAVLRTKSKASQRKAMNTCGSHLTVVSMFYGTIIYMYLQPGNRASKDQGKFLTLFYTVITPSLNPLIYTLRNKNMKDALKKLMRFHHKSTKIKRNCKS
From the text: (§1) GloSensor cAMP luminescence, HEK-293 on OR2W1

OR2W1 [2] = target: T2, OR2W1 (Homo sapiens, UniProt Q9Y3N9)
T2 construct: full coding region from human genomic DNA in pFN210A, N-terminal IL-6-HaloTag; HEK-293 with RTP1S, G-alpha-olf, G-gamma-13, GloSensor-22F
T2 sequence (Q9Y3N9 1-320): T1 sequence (Q9Y3N9 1-320 D296N) with N296D
From the text: as §1

OR2W1 [3] = target: T3, OR2W1 (Homo sapiens, UniProt Q9Y3N9, M81V)
T3 construct: full coding region from human genomic DNA in pFN210A, N-terminal IL-6-HaloTag; HEK-293 with RTP1S, G-alpha-olf, G-gamma-13, GloSensor-22F
T3 sequence (Q9Y3N9 1-320 M81V): T1 sequence (Q9Y3N9 1-320 D296N) with M81V, N296D
From the text: as §1

OR10A6 [4] = target: T4, OR10A6 (Homo sapiens, UniProt Q8NH74, A117V/L287P/V140G)
T4 construct: full coding region from human genomic DNA in pFN210A, N-terminal IL-6-HaloTag; HEK-293 with RTP1S, G-alpha-olf, G-gamma-13, GloSensor-22F
T4 sequence (Q8NH74 1-314 A117V/V140G/L287P): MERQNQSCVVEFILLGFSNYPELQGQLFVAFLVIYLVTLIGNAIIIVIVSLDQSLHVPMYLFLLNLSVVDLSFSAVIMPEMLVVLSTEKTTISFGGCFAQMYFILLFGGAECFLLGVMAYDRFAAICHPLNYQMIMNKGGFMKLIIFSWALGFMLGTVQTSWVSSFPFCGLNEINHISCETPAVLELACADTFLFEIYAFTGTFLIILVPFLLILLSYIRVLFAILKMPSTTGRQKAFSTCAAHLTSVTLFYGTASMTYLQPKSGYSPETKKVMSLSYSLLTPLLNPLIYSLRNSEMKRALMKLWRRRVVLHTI
From the text: (§2) GloSensor cAMP luminescence, HEK-293 on OR10A6

OR10A6 [5] = target: T5, OR10A6 (Homo sapiens, UniProt Q8NH74)
T5 construct: full coding region from human genomic DNA in pFN210A, N-terminal IL-6-HaloTag; HEK-293 with RTP1S, G-alpha-olf, G-gamma-13, GloSensor-22F
T5 sequence (Q8NH74 1-314): T4 sequence (Q8NH74 1-314 A117V/V140G/L287P) with V117A, G140V, P287L
From the text: as §2

OR10A6 [6] = target: T6, OR10A6 (Homo sapiens, UniProt Q8NH74, L287P)
T6 construct: full coding region from human genomic DNA in pFN210A, N-terminal IL-6-HaloTag; HEK-293 with RTP1S, G-alpha-olf, G-gamma-13, GloSensor-22F
T6 sequence (Q8NH74 1-314 L287P): T4 sequence (Q8NH74 1-314 A117V/V140G/L287P) with V117A, G140V
From the text: as §2

[7] = read-out: Z4-11Al EC50 [μmol/L] ^a

| SMILES | EC50 (OR2W1 [1]; read-out: Z4-9Al) | EC50 (OR2W1 [2]; read-out: Z4-9Al) | EC50 (OR2W1 [3]; read-out: Z4-9Al) | EC50 (OR10A6 [4]) | EC50 (OR10A6 [5]) | EC50 (OR10A6 [6]; read-out: Z4-9Al) | EC50 (OR2W1 [1]; read-out: Z6-11Al) | EC50 (OR2W1 [2]; read-out: Z6-11Al) | EC50 (OR2W1 [3]; read-out: EC50) | EC50 (OR10A6 [6]; read-out: Z6-11Al) | EC50 (OR2W1 [1]; [7]) | EC50 (OR2W1 [2]; [7]) | EC50 (OR10A6 [6]; [7]) |
| --- | --- | --- | --- | --- | --- | --- | --- | --- | --- | --- | --- | --- | --- |
| CCCC/C=C\CCC=O [Z4-9Al, (Z)-4-nonenal] | 91.8 ± 46.2 µmol/L | 119 ± 23.1 µmol/L | 142 ± 92.4 µM | > 1 mM | > 1 mM | 41.1 ± 14.2 µmol/L |  |  |  |  |  |  |  |
| CCCC/C=C\CCCCC=O [Z6-11Al, (Z)-6-undecenal] |  |  |  | > 1 mM | > 1 mM |  | 138 ± 55 µmol/L | 104 ± 27 µmol/L | > 1000 µM | 34.8 ± 9.21 µmol/L |  |  |  |
| CCCCCC/C=C\CCC=O [Z4-11Al, (Z)-4-undecenal] |  |  |  | > 1 mM | > 1 mM |  |  |  | > 1000 µM |  | 40.4 ± 12 µmol/L | 65.1 ± 35.8 µmol/L | 28.2 ± 12.6 µmol/L |
